Results on two substances are retold here after patent US20090143311A1, “Compositions comprising tripeptides inhibiting ace” (priority 2005, published 2009).

Test [1] deals with ACE. The test can be described thus: at-line ACE inhibition assay. The format is biochemical. As to conditions: HHL substrate, PBS pH 7.4, 60 minutes at 50° C. The source says: The presence of novel ACE inhibiting peptides in CDBAP was investigated by using 2-dimensional-chromatographic-separation combined with an at-line ACE inhibition assay and mass spectrometry for identification. In the first analysis the peptide mixture was separated on an ODS3 liquid chromatography (LC) column and ACE inhibition profiles were generated from the various fractions obtained. In a second analysis the fractions from the first column showing a high ACE inhibition were further separated on a Biosuite LC column using a different gradient profile. The fractions collected from this second column were split into two parts: one part was used for the at-line ACE inhibition measurement while the other part was subjected to MS and MS-MS analysis to identify the peptides present. […]
The 96 well plate was then analysed on a flash-HPLC-column. […] Hippuric acid (H) and HHL were monitored at 280 nm. The peak heights of H and HHL were measured and the ACE inhibition (ACEI) of each fraction was calculated according to the equation: […]
The Degree of Cleavage was calculated by expressing the peak height of H as a fraction of the sum of the peak heights of H and HHL.

Test [2] has as its system ACE. The test can be described thus: modified Matsui ACE inhibition assay. Format: biochemical. The method, then: Quantification of MAP and ITP in the various samples was performed on a Micromass Quattro II MS instrument operated in the positive electrospray, multiple reaction monitoring mode. The HPLC method used was similar to the one described above. The MS settings (ESI+) were as follows: cone voltage 37 V, capillary voltage 4 kV, drying gas nitrogen at 300 l/h. Source and nebulizer temperature: 100° C. and 250° C., respectively. The synthesized peptides were used to prepare a calibration line using the precursor ion 318.1 and the summed product ions […] for MAP and using the precursor ion 320.2 and the summed product ions […] for ITP. According to these analyses the novel ACE inhibiting tripeptides MAP and ITP are present in the CDBAP product in quantities corresponding with 2.9 mg MAP/gram CDBAP or 4.8 mg MAP/gram protein in CDBAP and 0.9 mg ITP/gram CDBAP en 1.4 mg ITP/gram protein in CDBAP. […]
Each one of the four samples contained 75 μl 3 mM hippuryl histidine leucine (Hip-His-Leu, Sigma) dissolved in a 250 mM borate solution containing 200 mM NaCl, pH 8.3. […] After incubation for 20 min. at 37° C., 4 ml 4 mM Na2SO3 in 0.2 M NaH2PO4 was added and the light absorbance at 416 nm was measured with UV/Vis spectrophotometer (Shimadzu UV-1601 with a CPS controller, Netherlands). […]

The target of test [3] is ACE (Homo sapiens, UniProt P12821). As to conditions: literature (Nakamura 1995; Aryoshi 1993); read-out: IC50 values reported earlier; cited from earlier work.
ACE (Homo sapiens, UniProt P12821), sequence (P12821 30-1306, species assumed): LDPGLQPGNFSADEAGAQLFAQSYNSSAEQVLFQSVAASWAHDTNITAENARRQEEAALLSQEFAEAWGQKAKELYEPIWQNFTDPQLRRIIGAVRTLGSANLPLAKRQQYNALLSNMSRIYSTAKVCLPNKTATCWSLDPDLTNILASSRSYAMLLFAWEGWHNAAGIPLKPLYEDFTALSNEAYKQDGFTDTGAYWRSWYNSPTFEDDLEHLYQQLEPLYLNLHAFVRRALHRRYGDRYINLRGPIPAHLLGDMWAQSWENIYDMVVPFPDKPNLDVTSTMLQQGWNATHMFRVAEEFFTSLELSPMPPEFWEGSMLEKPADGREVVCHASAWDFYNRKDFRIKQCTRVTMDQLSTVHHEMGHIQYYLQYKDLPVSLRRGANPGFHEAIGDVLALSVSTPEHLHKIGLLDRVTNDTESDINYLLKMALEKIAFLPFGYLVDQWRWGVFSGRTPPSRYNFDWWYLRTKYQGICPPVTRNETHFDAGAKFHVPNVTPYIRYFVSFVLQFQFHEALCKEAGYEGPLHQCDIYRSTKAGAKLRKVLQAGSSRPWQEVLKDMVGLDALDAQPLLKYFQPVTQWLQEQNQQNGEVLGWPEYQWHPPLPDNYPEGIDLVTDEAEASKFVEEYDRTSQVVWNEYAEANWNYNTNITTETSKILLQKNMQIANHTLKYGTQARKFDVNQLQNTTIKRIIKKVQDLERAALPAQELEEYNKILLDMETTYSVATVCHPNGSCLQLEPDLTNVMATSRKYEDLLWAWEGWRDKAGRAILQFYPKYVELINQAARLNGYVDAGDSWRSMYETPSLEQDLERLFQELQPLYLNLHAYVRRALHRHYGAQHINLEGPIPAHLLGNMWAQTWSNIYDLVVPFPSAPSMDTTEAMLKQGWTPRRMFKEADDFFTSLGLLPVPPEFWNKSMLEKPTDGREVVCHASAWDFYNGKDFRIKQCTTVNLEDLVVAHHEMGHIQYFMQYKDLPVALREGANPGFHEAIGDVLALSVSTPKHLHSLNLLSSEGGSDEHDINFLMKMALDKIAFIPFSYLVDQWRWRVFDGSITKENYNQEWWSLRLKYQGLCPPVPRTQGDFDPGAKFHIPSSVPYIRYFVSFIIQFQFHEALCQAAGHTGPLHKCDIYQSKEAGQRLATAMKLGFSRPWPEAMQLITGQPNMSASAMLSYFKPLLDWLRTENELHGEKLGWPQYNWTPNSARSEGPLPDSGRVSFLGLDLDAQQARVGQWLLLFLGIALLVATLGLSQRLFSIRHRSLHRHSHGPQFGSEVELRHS

As to “IPP: known ACE inhibiting tripeptide, kappa-casein f108-110; chemically synthesized IPP used as internal reference”, the half-maximal inhibitory concentration (IC50) in the test on ACE [1] is 7.1 µM; in the test with ACE [2] (chemically synthesized peptides, Hip-His-Leu, pH 8.3, 37° C., 30 min, read-out: IC50 value Modified Matsui assay), 2 µM; with ACE [2] (read-out: IC50 value in Modified Matsui test), 2 µM; with ACE [3], 5 µM.

“LPP: known ACE inhibiting tripeptide, β-casein f151-153 (UniProt P02666 166-168, looked up, fragment)”: the concentration for half-maximal inhibition (IC50) with ACE [3] was 9.6 µM.
